Laboratory results: PubChem BioAssay (NCI)
Several values for one entry are separate records, joined by “and”; a condition that tells them apart may be missing. Equal values may be shown once.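 Values below derive from 48-hour exposures of cells grown in 96-well plates, with endpoints linearly interpolated between the two concentrations bracketing the appropriate inhibition level. GI50 is the concentration that inhibits growth by half. Definition used: TGI = concentration required for complete inhibition of growth.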

System: MDA-MB-468 breast
Experiment: inhibition of tumour cell growth, NCI panel, 48 h

Structure (SMILES)	GI50	TGI
Cn1c(=O)c(Cc2ccccc2F)cc2cnc(NC3CCOCC3)nc21	> 25000 nM	> 25000 nM
CC/C=C\C[C@H]1C/C=C2/C(=O)C=C[C@@H]2C/C=C\CCCC(=O)O1	854 nM	2730 nM
O=c1cc(NC2CCN(CCCc3ccccc3)CC2)c2cc(Cl)ccc2o1	5820 nM	21800 nM
CCOc1cc(C(C)(C)C)ccc1C1=N[C@@](C)(c2ccc(Cl)cc2)[C@@](C)(c2ccc(Cl)cc2)N1C(=O)N1CCN(CCCS(C)(=O)=O)CC1	2530 nM	7920 nM
Cc1[nH]c2ccccc2c(=O)c1CC=C(Cl)Cl	18800 nM	> 100000 nM
CC1(C)[C@@H](OC(N)=O)[C@H]2O[C@H]2[C@]2(C=O)[C@H]3CC[C@]4(C)[C@@H](c5ccc(=O)oc5)[C@@H](Cl)C[C@]4(O)C3=CC[C@@H]12	6.2 nM	17.8 nM
CC(C)C[C@H](NC(=O)/C=C/Cn1ccc2ccccc2c1=O)B(O)O	681 nM	4710 nM
COc1ccc(-c2nn(-c3ccc(NC(=O)Nc4cc(C(F)(F)F)cc(C(F)(F)F)c4)cc3)cc2-c2ccncc2)cc1Cl	1800 nM	6000 nM
COC(=O)[C@H]1[C@@H](O)[C@@]2(O)c3c(OC)cc(OC)cc3O[C@@]2(c2ccc(OC)cc2)[C@@H]1c1ccccc1	7.83 nM	116 nM
COc1cccc2c(=O)c3c(sc12)c(N1CCNCC1)nc1ccccc13	1660 nM	3300 nM
COc1cc(/C=C/c2cc(/C=C/c3ccc(O)c(OC)c3)n(C(=O)Nc3ccc(C)cc3C)n2)ccc1O	242 nM	750 nM
CCOC(=O)c1sc(NCC(=O)Nc2cccc([N+](=O)[O-])c2)c(C(=O)OCC)c1C	670 nM	2230 nM
COc1ccc(CCN2COc3c([C@@H](C)CCC=C(C)C)ccc(C)c3C2)cc1OC	1230 nM	2950 nM
C[C@H](O)C(=O)N1CCC(CCn2c(Sc3cc4c(cc3Br)OCO4)nc3c(N)ncnc32)CC1	482 nM	2920 nM
Nc1nc(F)nc2c1ncn2C1OC(CO)C(O)C1O (configuration not stated)	> 85600 nM	> 100000 nM
CCCCCCCCCCCCCCCCCCOc1ccccc1CC(=O)OCC[N+]1(C)CCCC1	1700 nM	4510 nM
Cc1ccc(-c2nc3ccc(Cl)cc3c(=O)n2N2C(=O)CSC2c2ccccc2Cl)cc1 (configuration not stated)	57600 nM	> 100000 nM
Nc1ccc(-c2nc3ccc(Cc4ccc5nc(-c6ccc(N)cc6)[nH]c5c4)cc3[nH]2)cc1	1470 nM	2900 nM

Structure (SMILES)	GI50	TGI
COc1ccc(/C=N/NC(=O)c2[nH]c3ccc(Br)cc3c2-c2ccccc2)o1	58.8 nM	3360 nM
Nc1ccc2cc3ccc(N)cc3nc2c1	531 nM	2220 nM
CC1=C[C@H]2c3c(c(O)c(O)c4oc(-c5ccccc5)cc(=O)c34)[C@H](c3cc(O)c(O)c4oc(-c5ccccc5)cc(=O)c34)[C@H]2C(C)(C)C1	1380 nM	4760 nM
COc1ccc(C(=O)COc2ccc(/C=C3\COc4ccc(OC)cc4C3=O)cc2)cc1	18000 nM	88200 nM
CCn1c(SCc2ccc(C)cc2)nnc1-c1nn(-c2ccc(Cl)cc2Cl)c(-c2ccc(Cl)cc2)c1C	623 nM	10600 nM
C#CCOc1cccc(-c2nc(N)nc(Nc3ccccc3SSc3ccccc3Nc3nc(N)nc(-c4cccc(OCC#C)c4)n3)n2)c1	> 33300 nM	> 33300 nM
CN(C)CCN1C(=O)c2ccc3c4c(ccc(c24)C1=O)C(=O)N(CCN=C=S)C3=O	26.3 nM	101 nM
CN(C)C(=O)[C@H](O)[C@H](Cc1ccccc1)NC(=O)c1cc2cc(Cl)ccc2[nH]1	20100 nM	77600 nM
O=C(/C=C\c1ccc(NCc2ccc(C(=O)O)cc2)cc1)CCl	7360 nM	23800 nM
CCc1nc(C(N)=O)c(Nc2ccc(N3CCC(N4CCN(C)CC4)CC3)c(OC)c2)nc1NC1CCOCC1	12200 nM and 14000 nM	27700 nM and > 2370 nM and 31800 nM
COc1ccc(/C=C/C(=O)C(CC2CCC2)C(=O)/C=C/c2ccc(OC)c(OC)c2)cc1OC	1590 nM	3690 nM
Cc1ncc(CCCN(C)C)cc1Nc1ncc2c(n1)-c1ccc(C(F)(F)F)cc1NC(=S)C2	< 21.2 nM	1580 nM
O=C1Nc2ccc(F)cc2/C1=C/c1ccc[nH]1	203 nM	1500 nM
O=S(=O)(Nc1cc(Sc2cccc3cccnc23)c(O)c2ccccc12)c1ccccc1	1290 nM	3200 nM
COc1cc2[nH]c(C(=O)c3cc(OC)c(OC)c(OC)c3)c(N)c2cc1C#CC1CC1	2080 nM	8280 nM
CC(C)(C[C@H]1CN(S(=O)(=O)c2cccc(C(F)(F)F)c2)c2cc(-c3cc(F)cc(OC(F)F)c3)ccc2O1)C(=O)O	3410 nM	25100 nM
COc1cc(C(=O)c2cc(C)c3[nH]c4ccc(C)cc4c3c2C)cc(OC)c1OC	< 10 nM	3680 nM
Cc1ccc2[nH]c(O)c(N=Nc3ccc(S(N)(=O)=O)cc3)c2c1	6670 nM	> 25000 nM
